Test results reported in patent US20230271953A1, “Novel compounds for treatment of diseases related to DUX4 expression” (Facio Intellectual Property B.V., priority 2019, published 2023).

Tested on: DUX4
Test: DUX4 repression assay in primary FSHD cells (protocol of Example 2 of WO2019/115711)
Type: cell-based, human
Details: incubated 72 hours, Table 2.3 (additional results), binned
Method: The DUX4 repression of compounds of general formula (I) was assayed following a known protocol (the protocol of Example 2 of WO2019/115711). Several compounds were incubated with primary FSHD cells for 72 hours. Results are shown in Table 2.2, showing DUX4 Count % inhibition.

Compound | DUX4 Count % inhibition
OC1CN(c2ccc3nc(-c4ccc(F)cc4)n(-c4ccncc4)c3n2)C1 [Compound 98, 1-[2-(4-fluorophenyl)-3-(pyridin-4-yl)-3H-imidazo[4,5-b]pyridin-5-yl]azetidin-3-ol] | fall outside of the bins
Fc1ccc(-c2nc3ccc(N4CC(N5CCCC5)C4)nc3n2-c2ccncc2)cc1 [Compound 106, 4-[2-(4-fluorophenyl)-5-[3-(pyrrolidin-1-yl)azetidin-1-yl]-3H-imidazo[4,5-b]pyridin-3-yl]pyridine] | fall outside of the bins
C[C@@H]1CNCCN1c1ccc2nc(-c3cccc(C#N)c3)n(-c3ccncc3)c2n1 [Compound 188-R, 3-{5-[(2R)-2-methylpiperazin-1-yl]-3-(pyridin-4-yl)-3H-imidazo[4,5-b]pyridin-2-yl}benzonitrile] | fall outside of the bins
